Source: patent US6720342B2, “Heterocyclic compounds and their preparation and use” (Novo Nordisk A/S, priority 1996, dated 2004)
Where a name gives a salt, the structure may show the parent alone.

Experiments:
[1] = molecular target: muscarinic acetylcholine receptors; test: Inhibition of specific binding of 3H-Oxotremorine-M (3H-Oxo) to rat cortex membranes; details: rat cortex homogenate, 1.0 nM 3H-Oxotremorine, 30 min at 25° C.
Source text: The pharmacological properties of the compounds of the invention can be illustrated by determining their capability to inhibit the specific binding of ^3H-Oxotremorine-M (^3H-Oxo). Birdsdall N. J. M., Hulme E. C., and Burgen A. S. V. (1980). “The Character of Muscarinic Receptors in Different Regions of the Rat Brain”. Proc. Roy. Soc. London (Series B) 207, 1.
^3H-Oxo labels muscarinic receptor in the CNS (with a preference for agonist domains of the receptors). Three different sites are labelled by ^3H-Oxo. […] Using the present experimental conditions only the high and medium affinity sites are determined.
The inhibitory effects of compounds on ^3H-Oxo binding reflects the affinity for muscarinic acetylcholine receptors.
(§1) All preparations are performed at 0-4° C. unless otherwise indicated. Fresh cortex (0.1-1 g) from male Wistar rats (150-250 g) is homogenized for 5-10 s in 10 ml 20 mM Hepes pH: 7.4, with an Ultra-Turrax homogenizer. The homogenizer is rinsed with 10 ml of buffer and the combined suspension centrifuged for 15 min. at 40,000×g. The pellet is washed three times with buffer. In each step the pellet is homogenized as before in 2×10 ml of buffer and centrifuged for 10 min. at 40,000×g.
The final pellet is homogenized in 20 mM Hepes pH: 7.4 (100 ml per g of original tissue) and used for binding assay. Aliquots of 0.5 ml is added 25 μl of test solution and 25 μl of ^3H-Oxotremorine (1.0 nM, final concentration) mixed and incubated for 30 min. at 25° C. Non-specific binding is determined in triplicate using arecoline (1 μg/ml, final concentration) as the test substance. After incubation samples are added 5 ml of ice-cold buffer and poured directly onto Whatman GF/C glass fiber filters under suction and immediately washed 2 times with 5 ml of ice-cold buffer. The amount of radioactivity on the filters are determined by conventional liquid scintillation counting. Specific binding is total binding minus non specific binding.
Test substances are dissolved in 10 ml water (if necessary heated on a steambath for less than 5 min.) at a concentration of 2.2 mg/ml. 25-75% inhibition of specific binding must be obtained before calculation of IC50.
The test value will be given as IC50 (the concentration (nM) of the test substance which inhibits the specific binding of ^3H-Oxo by 50%).
(§2) IC50=(applied test substance concentration)×(Cx/Co−Cx)nM
(§3) where Co is specific binding in control assays and Cx is the specific binding in the test assay. (The calculations assume normal mass-action kinetics).

[2] = molecular target: T1, muscarinic receptors (M1-site, pirenzepine sensitive site) (Rattus norvegicus, UniProt P08482); test: Inhibition of 3H-PRZ (pirenzepine, [N-methyl-3H]) binding to rat cerebral cortex membranes; details: 1.0 nM 3H-Pirenzepine, 60 min at 20° C.
T1 construct: Fresh cortex (0.1-1 g) from male Wistar rats (150-200 g) is homogenized; from tissue; host or cells: rat (male Wistar) cerebral cortex membranes
T1 sequence (P08482 1-460): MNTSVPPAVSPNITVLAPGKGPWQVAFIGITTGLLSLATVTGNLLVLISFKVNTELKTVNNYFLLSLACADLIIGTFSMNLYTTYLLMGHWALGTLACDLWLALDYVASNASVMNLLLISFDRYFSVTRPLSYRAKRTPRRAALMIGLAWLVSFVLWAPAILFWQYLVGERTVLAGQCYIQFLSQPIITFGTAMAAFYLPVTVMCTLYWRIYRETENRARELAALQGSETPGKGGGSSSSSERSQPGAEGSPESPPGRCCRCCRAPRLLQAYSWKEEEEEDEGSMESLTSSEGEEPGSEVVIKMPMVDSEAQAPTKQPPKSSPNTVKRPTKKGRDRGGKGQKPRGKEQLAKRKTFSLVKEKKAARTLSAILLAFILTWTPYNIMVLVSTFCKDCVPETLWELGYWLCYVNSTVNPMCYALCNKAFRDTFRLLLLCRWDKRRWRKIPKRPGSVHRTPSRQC
Method: Furthermore the pharmacological properties of the compounds of the invention can also be illustrated by determining their capability to inhibit ^3H-PRZ (pirenzepine, [N-methyl-^3H]) binding to rat cerebral cortex membranes. Pirenzepine binds selectively to subtype of muscarinic receptors. Historically the type is named the M1-site, whereas pirenzepine sensitive site would be more appropriate. Although selective for M1-sites pirenzepine also interact with M2-sites.
as §1, with “rats (150-200” for “rats (150-250”, “5-10 s.” for “5-10 s”, “with 2×10” for “with 10”, “15 min” for “15 min.”, “in 3×10” for “in 2×10”, “10 min” for “10 min.”
The final pellet is homogenized in 20 mM Hepes pH: 7.4 (100 ml per g of original tissue) and used for binding assay. Aliquots of 0.5 ml is added 20 μl of test solution and 25 μl of ^3H-Pirenzepine (1.0 nM, final conc.), mixed and incubated for 60 min at 20° C. Non-specific binding is determined in triplicate using atropine (1 μg/ml, final conc.) as the test substance. After incubation samples are added 5 ml of ice-cold buffer and poured directly onto Whatman GF/C glass fiber filters under suction and immediately washed 2 times with 5 ml of ice-cold buffer. The amount of radioactivity on the filters are determined by conventional liquid scintillation counting. Specific binding is total binding minus non-specific binding.
Test substances are dissolved in 10 ml water, at a concentration of 0.22 mg/ml. 25-75% inhibition of specific binding must be obtained before calculation of IC50.
The test value will be given as IC50 (the concentration (nM) of the test substance which inhibits the specific binding of ^3H-PRZ by 50%).
as §2, §3

In the case of CCCCSc1nsnc1OC1CN2CCC1C2 (stereo not drawn) [Compound 1, Endo 3-(3-butylthio-1,2,5-thiadiazol-4-yloxy)-1-azabicyclo[2.2.1]heptane, oxalate], the IC50 [1] is reported as 1.6 nM and the IC50 [2] is reported as 0.14 nM.

CCCSc1nsnc1OC1CN2CCC1C2 (stereo not drawn) [Compound 2, Endo 3-(3-propylthio-1,2,5-thiadiazol-4-yloxy)-1-azabicyclo[2.2.1]heptane, oxalate] showed an IC50 [1] of 1.4 nM and an IC50 [2] of 4.2 nM.

Fc1ccc(C#CCOc2nsnc2OC2CN3CCC2C3)cc1 (stereo not drawn) [Compound 4, Endo 3-(3-[3-(4-fluorophenyl)-2-propynyl-1-oxy]-1,2,5-thiadiazol-4-yloxy)-1-azabicyclo[2.2.1]heptane, oxalate] showed an IC50 [1] of 7.9 nM and an IC50 [2] of 8.3 nM.

Compound C(#Cc1ccccc1)COc1nsnc1OC1CN2CCC1C2 (stereo not drawn) [Compound 5, Endo 3-(3-[3-phenyl-2-propynyl-1-oxy]-1,2,5-thiadiazol-4-yloxy)-1-azabicyclo[2.2.1]heptane, oxalate] has an IC50 [1] of 10 nM and an IC50 [2] of 14 nM.

For COc1cccc(C#CCOc2nsnc2OC2CN3CCC2C3)c1 (stereo not drawn) [Compound 6, Endo 3-(3-[3-(3-methoxyphenyl)-2-propynyl-1-oxy]-1,2,5-thiadiazol-4-yloxy)-1-azabicyclo[2.2.1]heptane, oxalate], the IC50 [2] was 17 nM.

In the case of CC(C)=CCOc1nsnc1OC1CN2CCC1C2 (stereo not drawn) [Compound 7, Endo 3-(3-[3-methyl-2-butenyl-1-oxy]-1,2,5-thiadiazol-4-yloxy)-1-azabicyclo[2.2.1]heptane, oxalate], the IC50 [1] is reported as 10 nM and the IC50 [2] is reported as 24 nM.

Work on C(CC1CC1)Oc1nsnc1OC1CN2CCC1C2 (stereo not drawn) [Compound 8, Endo 3-(3-[2-cyclopropylethyl-1-oxy]-1,2,5-thiadiazol-4-yloxy)-1-azabicyclo[2.2.1]heptane, oxalate] yielded an IC50 [1] of 4.9 nM and an IC50 [2] of 9.8 nM.

With Fc1ccc(COc2nsnc2OC2CN3CCC2C3)cc1 (stereo not drawn) [Compound 9, Endo 3-(3-[4-fluorobenzyloxy]-1,2,5-thiadiazol-4-yloxy)-1-azabicyclo-[2.2.1]heptane, oxalate] the IC50 [1] was 25 nM and the IC50 [2] was 30 nM.

Work on CC=CCOc1nsnc1OC1CN2CCC1C2 (stereo not drawn) [Compound 10, Endo 3-(3-[2-butenyl-1-oxy]-1,2,5-thiadiazol-4-yloxy)-1-azabicyclo[2.2.1]heptane, oxalate] yielded an IC50 [1] of 5.3 nM and an IC50 [2] of 20 nM.

With CC#CCOc1nsnc1OC1CN2CCC1C2 (stereo not drawn) [Compound 11, Endo 3-(3-[2-butynyl-1-oxy]-1,2,5-thiadiazol-4-yloxy)-1-azabicyclo[2.2.1]heptane, oxalate] the IC50 [1] was 2.1 nM and the IC50 [2] was 23 nM.

Work on CSCCOc1nsnc1OC1CN2CCC1C2 (stereo not drawn) [Compound 12, Endo 3-(3-methylthioethoxy-1,2,5-thiadiazol-4-yloxy)-1-azabicyclo-[2.2.1]heptane, oxalate] yielded an IC50 [1] of 3.7 nM and an IC50 [2] of 29 nM.

In the case of COCCOc1nsnc1OC1CN2CCC1C2 (stereo not drawn) [Compound 13, Endo 3-(3-methoxyethoxy-1,2,5-thiadiazol-4-yloxy)-1-azabicyclo[2.2.1]heptane, oxalate], the IC50 [1] is reported as 4.3 nM and the IC50 [2] is reported as 44 nM.

FC(F)(F)Oc1ccc(COc2nsnc2OC2CN3CCC2C3)cc1 (stereo not drawn) [Compound 14, Endo 3-(3-[4-trifluoromethoxybenzyloxy]-1,2,5-thiadiazol-4-yloxy)-1-azabicyclo[2.2.1]heptane, oxalate] showed an IC50 [1] of 49 nM and an IC50 [2] of 32 nM.

For FC(F)(F)CCCOc1nsnc1OC1CN2CCC1C2 (stereo not drawn) [Compound 15, Endo 3-(3-[4,4,4-trifluorobutyl-1-oxy]-1,2,5-thiadiazol-4-yloxy)-1-azabicyclo[2.2.1]heptane, oxalate], the IC50 [1] was 18 nM and the IC50 [2] was 14 nM.

Fc1cc(C(F)(F)F)ccc1COc1nsnc1OC1CN2CCC1C2 (stereo not drawn) [Compound 16, Endo 3-(3-[2-fluoro-4-(trifluoromethyl)-benzyloxy]-1,2,5-thiadiazol-4-yloxy)-1-azabicyclo[2.2.1]heptane, oxalate] was tested, and the IC50 [1] was 148 nM and the IC50 [2] was 129 nM.

With COc1cccc(C#CC(C)Oc2nsnc2OC2CN3CCC2C3)c1 (stereo not drawn) [Compound 17, Endo 3-(3-[4-(3-methoxyphenyl)-3-butyn-2-yloxy]-1,2,5-thiadiazol-4-yloxy)-1-azabicyclo[2.2.1]heptane, oxalate] the IC50 [1] was 72 nM and the IC50 [2] was 48 nM.

Compound Clc1ccc(C#CCOc2nsnc2OC2CN3CCC2C3)cc1 (stereo not drawn) [Compound 18, Endo 3-(3-[3-(4-chlorophenyl)-2-propynyl-1-oxy]-1,2,5-thiadiazol-4-yloxy)-1-azabicyclo[2.2.1]heptane, oxalate] has an IC50 [1] of 79 nM and an IC50 [2] of 12 nM.

Work on CCC(C#Cc1cccc(OC)c1)Oc1nsnc1OC1CN2CCC1C2 (stereo not drawn) [Compound 19, Endo 3-(3-[1-(3-methoxyphenyl)-1-pentyn-3-yloxy]-1,2,5-thiadiazol-4-yloxy)-1-azabicyclo[2.2.1]heptane, oxalate] yielded an IC50 [1] of 126 nM and an IC50 [2] of 53 nM.

For FC(F)(F)c1cccc(C#CCOc2nsnc2OC2CN3CCC2C3)c1 (stereo not drawn) [Compound 20, Endo 3-(3-(3-(3-trifluoromethylphenyl)-2-propynyl-1-oxy)-1,2,5-thiadiazol-4-yloxy)-1-azabicyclo[2.2.1]heptane, oxalate], the IC50 [2] was 11 nM.

Fc1cccc(C#CCOc2nsnc2OC2CN3CCC2C3)c1 (stereo not drawn) [Compound 28, Endo 3-(3-(3-(3-fluorophenyl)-2-propyn-1-yloxy)-1,2,5-thiadiazol-4-yloxy-1-azabicyclo[2.2.1]heptane, oxalate] was tested, and the IC50 [1] was 5.5 nM.

For FC(F)(F)CCCSc1nsnc1OC1CN2CCC1C2 (stereo not drawn) [Compound 30, Endo 3-(3-(4,4,4-trifluorobutylthio)-1,2,5-thiadiazol-4-yloxy)-1-azabicyclo-[2.2.1]heptane, oxalate], the IC50 [2] was 3.4 nM.

N#Cc1ccc(CSc2nsnc2OC2CN3CCC2C3)cc1 (stereo not drawn) [Compound 31, Endo 3-(3-[4-cyanobenzylthio]-1,2,5-thiadiazol-4-yloxy)-1-azabicyclo-[2.2.1]heptane, oxalate] gave an IC50 [2] of 23 nM.

With FCCSc1nsnc1OC1CN2CCC1C2 (stereo not drawn) [Compound 34, Endo 3-(3-[2-fluoroethyl-1-thio]-1,2,5-thiadiazol-4-yloxy)-1-azabicyclo-[2.2.1]heptane, oxalate] the IC50 [2] was 31 nM.

In the case of C1CC(COc2nsnc2OC2CN3CCC2C3)C1 (stereo not drawn) [Compound 41, Endo 3-(3-cyclobutylmethyloxy-1,2,5-thiadiazol-4-yloxy)-1-azabicyclo-[2.2.1]heptane, oxalate], the IC50 [2] is reported as 9.2 nM.
